Measured values taken from PubChem BioAssay (NCI).
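48-hour exposure; five concentrations; linearly interpolated endpoints. At the GI50, growth is halved. At the TGI there is no net growth.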

Key:
Assay in all cases: inhibition of tumour cell growth, NCI panel, 48 h
NCI-H23 lung = tested on: NCI-H23 lung
OVCAR-3 ovarian = tested on: OVCAR-3 ovarian
SF-268 CNS = tested on: SF-268 CNS
SW-620 colon = tested on: SW-620 colon
K-562 leukemia = tested on: K-562 leukemia
SF-295 CNS = tested on: SF-295 CNS
HCT-15 colon = tested on: HCT-15 colon
786-0 renal = tested on: 786-0 renal
OVCAR-8 ovarian = tested on: OVCAR-8 ovarian
SNB-75 CNS = tested on: SNB-75 CNS
IGROV1 ovarian = tested on: IGROV1 ovarian
SF-539 CNS = tested on: SF-539 CNS
SK-MEL-2 melanoma = tested on: SK-MEL-2 melanoma
DU-145 prostate = tested on: DU-145 prostate
NCI-H226 lung = tested on: NCI-H226 lung
NCI-H522 lung = tested on: NCI-H522 lung
MOLT-4 leukemia = tested on: MOLT-4 leukemia
CAKI-1 renal = tested on: CAKI-1 renal
UO-31 renal = tested on: UO-31 renal
SK-MEL-5 melanoma = tested on: SK-MEL-5 melanoma
HL-60(TB) leukemia = tested on: HL-60(TB) leukemia
PC-3 prostate = tested on: PC-3 prostate
HS 578T breast = tested on: HS 578T breast
MDA-MB-231 breast = tested on: MDA-MB-231 breast
UACC-257 melanoma = tested on: UACC-257 melanoma
HT29 colon = tested on: HT29 colon
HOP-62 NSCLC = tested on: HOP-62 NSCLC
UACC-62 melanoma = tested on: UACC-62 melanoma
BT-549 breast = tested on: BT-549 breast
SK-MEL-28 melanoma = tested on: SK-MEL-28 melanoma
MDA-MB-435 = tested on: MDA-MB-435
NCI/ADR-RES ovarian = tested on: NCI/ADR-RES ovarian
CCRF-CEM leukemia = tested on: CCRF-CEM leukemia
KM12 colon = tested on: KM12 colon
SR leukemia = tested on: SR leukemia
EKVX NSCLC = tested on: EKVX NSCLC
COLO 205 colon = tested on: COLO 205 colon
RXF 393 renal = tested on: RXF 393 renal
OVCAR-5 ovarian = tested on: OVCAR-5 ovarian
ACHN renal = tested on: ACHN renal
U251 CNS = tested on: U251 CNS
SN12C renal = tested on: SN12C renal
SNB-19 CNS = tested on: SNB-19 CNS
A549 NSCLC = tested on: A549 NSCLC
RPMI-8226 leukemia = tested on: RPMI-8226 leukemia
LOX IMVI melanoma = tested on: LOX IMVI melanoma
TK-10 renal = tested on: TK-10 renal
MCF7 breast = tested on: MCF7 breast
NCI-H460 lung = tested on: NCI-H460 lung
HCT-116 colon = tested on: HCT-116 colon

CN(c1ccc(C(=O)O)cc1)c1cc(O/N=[N+](\[O-])N(C)C)c([N+](=O)[O-])cc1[N+](=O)[O-]
GI50 (NCI-H23 lung): 4.83 µM | TGI (NCI-H23 lung): 29.2 µM | GI50 (OVCAR-3 ovarian): 2.62 µM | TGI (OVCAR-3 ovarian): 6.92 µM | GI50 (SF-268 CNS): 13.1 µM | TGI (SF-268 CNS): 36.3 µM | GI50 (SW-620 colon): 3.64 µM | TGI (SW-620 colon): > 100 µM | GI50 (K-562 leukemia): 6.99 µM | TGI (K-562 leukemia): > 100 µM | GI50 (SF-295 CNS): 12.6 µM | TGI (SF-295 CNS): 27 µM | GI50 (HCT-15 colon): 2.03 µM | TGI (HCT-15 colon): 5.3 µM | GI50 (786-0 renal): 3.25 µM | TGI (786-0 renal): 14.6 µM | GI50 (OVCAR-8 ovarian): 22.3 µM | TGI (OVCAR-8 ovarian): 54.5 µM | GI50 (SNB-75 CNS): 25.6 µM | TGI (SNB-75 CNS): 55.6 µM | GI50 (IGROV1 ovarian): 5.48 µM | TGI (IGROV1 ovarian): 24.5 µM | GI50 (SF-539 CNS): 16.6 µM | TGI (SF-539 CNS): 35.8 µM | GI50 (SK-MEL-2 melanoma): 14.9 µM | TGI (SK-MEL-2 melanoma): 39.6 µM | GI50 (DU-145 prostate): 17.1 µM | TGI (DU-145 prostate): 33.5 µM | GI50 (NCI-H226 lung): 11.3 µM | TGI (NCI-H226 lung): 29 µM | GI50 (NCI-H522 lung): 15.1 µM | TGI (NCI-H522 lung): > 100 µM | GI50 (MOLT-4 leukemia): 12.1 µM | TGI (MOLT-4 leukemia): > 100 µM | GI50 (CAKI-1 renal): 1.79 µM | TGI (CAKI-1 renal): 4 µM | GI50 (UO-31 renal): 32.1 µM | TGI (UO-31 renal): > 100 µM | GI50 (SK-MEL-5 melanoma): 19.1 µM | TGI (SK-MEL-5 melanoma): 38.7 µM | GI50 (HL-60(TB) leukemia): 2.84 µM | TGI (HL-60(TB) leukemia): 27.4 µM | GI50 (PC-3 prostate): 17.5 µM | TGI (PC-3 prostate): 38.1 µM | GI50 (HS 578T breast): 21.5 µM | TGI (HS 578T breast): 61.3 µM | GI50 (MDA-MB-231 breast): 3.71 µM | TGI (MDA-MB-231 breast): 12.2 µM | GI50 (UACC-257 melanoma): 21 µM | TGI (UACC-257 melanoma): 40.6 µM | GI50 (HT29 colon): 23 µM | TGI (HT29 colon): > 100 µM | GI50 (HOP-62 NSCLC): 14.5 µM | TGI (HOP-62 NSCLC): 31.3 µM | GI50 (UACC-62 melanoma): 7.29 µM | TGI (UACC-62 melanoma): 19.8 µM | GI50 (BT-549 breast): 17.4 µM | TGI (BT-549 breast): 32.6 µM | GI50 (SK-MEL-28 melanoma): 21 µM | TGI (SK-MEL-28 melanoma): 57.1 µM | GI50 (MDA-MB-435): 4.84 µM | TGI (MDA-MB-435): 19.9 µM | GI50 (NCI/ADR-RES ovarian): 3.35 µM | TGI (NCI/ADR-RES ovarian): 17.2 µM | GI50 (CCRF-CEM leukemia): > 100 µM | TGI (CCRF-CEM leukemia): > 100 µM | GI50 (KM12 colon): 10.9 µM | TGI (KM12 colon): 23.9 µM | GI50 (SR leukemia): 19.8 µM | TGI (SR leukemia): > 100 µM | GI50 (EKVX NSCLC): 18.2 µM | TGI (EKVX NSCLC): 36.2 µM | GI50 (COLO 205 colon): 8.78 µM | TGI (COLO 205 colon): > 100 µM | GI50 (RXF 393 renal): 17.1 µM | TGI (RXF 393 renal): 33.8 µM | GI50 (OVCAR-5 ovarian): 10.8 µM | TGI (OVCAR-5 ovarian): 72.5 µM | GI50 (ACHN renal): 3.8 µM | TGI (ACHN renal): 14.1 µM | GI50 (U251 CNS): 3.69 µM | TGI (U251 CNS): 14.1 µM | GI50 (SN12C renal): 12.2 µM | TGI (SN12C renal): 25.3 µM | GI50 (SNB-19 CNS): 14.6 µM | TGI (SNB-19 CNS): 40.7 µM | GI50 (A549 NSCLC): 23.5 µM | TGI (A549 NSCLC): 63.7 µM | GI50 (RPMI-8226 leukemia): 2.79 µM | TGI (RPMI-8226 leukemia): 18 µM | GI50 (LOX IMVI melanoma): 1.86 µM | TGI (LOX IMVI melanoma): 4.33 µM | GI50 (TK-10 renal): 13.9 µM | TGI (TK-10 renal): 26.9 µM | GI50 (MCF7 breast): 6.8 µM | TGI (MCF7 breast): 54.8 µM | GI50 (NCI-H460 lung): 18.9 µM | TGI (NCI-H460 lung): > 100 µM | GI50 (HCT-116 colon): 2.72 µM | TGI (HCT-116 colon): 10.4 µM
